Data reported in ChEMBL document CHEMBL1157231, “Antibacterial compounds from Glycyrrhiza uralensis” (2006).

The compounds below were run on Streptococcus mutans (assay: Antibacterial activity against Streptococcus mutans ATCC 25175 after 16 to 20 hrs by NCCLS method).
Assay type: functional
In the case of `CC(C)=CCc1c(O)c(CC=C(C)C)c2occ(-c3ccc(O)cc3)c(=O)c2c1O`, the Activity is reported as 2 µg/mL. `COc1cc2oc(=O)c3c4ccc(O)cc4oc3c2c(OC)c1CC=C(C)C` was tested, and the Activity was 500 µg/mL. In the case of `COc1cc2occ(-c3ccc(O)cc3)c(=O)c2c(O)c1CC=C(C)C` [GANCAONIN G], the Activity is reported as 125 µg/mL. `COc1c(CC=C(C)C)c(O)cc2c1-c1oc3cc(O)c(CC=C(C)C)cc3c1CO2` [GLYCYRRHIZOL A] gave an Activity of 1 µg/mL. For `COc1cc(O)cc2c1-c1oc3c4c(ccc3c1CO2)OC(C)(C)C=C4` [GLYCYRRHIZOL B], the Activity was 32 µg/mL. Compound `COc1c2c(cc3oc(=O)c4c5ccc(O)cc5oc4c13)OC(C)(C)CC2` [ISOGLYCYROL] has an Activity of 500 µg/mL.
